According to patent US20030100572A1, “Novel pyridopyrimidones and uses thereof” (ARIAD PHARMACEUTICALS,INC., priority 2001, published 2003):

Assay: Hydroxyapatite Assay (hydroxyapatite adsorption chromatography)
Type: physicochemical
Details: corrected retention K=(retention time-void time)/void on TSK-Gel HA 1000 HPLC column; linear gradient 10 mM to 500 mM sodium phosphate, 0.15 N NaCl, pH 6.8
Description: Hydroxyapatite is the principal mineral component of bone. Hydroxyapatite adsorption chromatography is used as an assay to evaluate the bone-targeting potential of both individual bone-targeting moieties (“monomers”) and of pharmaceuticals incorporating bone-targeting groups.
The rentention time of the compound is expressed in terms of K=(retention time-void time)/void. This K value is corrected using two reference compounds to correct from inter-column and inter-system variation to obtain a K′ value.
Reference Compounds: K′ values were determined for known bone targeted compounds, the bisphosphonate, alendronate and tetracycline.

NCCCC(O)(P(=O)(O)O)P(=O)(O)O [Alendronate, alendronate]
K′ value: 3.7
